Measured values published in PubChem BioAssay AID485301 (The Scripps Research Institute Molecular Screening Center, 2010).
The source made the active and inactive calls.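 Rule for the calls: active = IC50 of 10 µM or less against the helicase of at least one HCV strain tested; inactive = the rest.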

Columns and labels:
Assay in all cases: NS3 helicase inhibition across HCV genotypes – biochemical, real-time fluorescence, genotypes 1b J4, 1b con1, 2a JFH1, selectivity assay, late-stage follow-up (AID 485301)
Settings in all cases: NS3 helicase unwinding, Cy5 molecular beacon fluorescence
NS3h 1b (J4) = biological target: NS3h 1b (J4)
NS3h 2a (JFH1) = biological target: NS3h 2a (JFH1)
NS3h 1b (con1) = biological target: NS3h 1b (con1)

| Compound | IC50 (NS3h 1b (J4)) | IC50 (NS3h 2a (JFH1)) | IC50 (NS3h 1b (con1)) |
| --- | --- | --- | --- |
| Cc1ccc(C(=O)C2=C(O)C(=O)N(Cc3ccco3)C2c2cccc(Cl)c2)o1 (stereo not drawn) | > 500 µM (inactive) | > 500 µM (inactive) | > 500 µM (inactive) |
| COc1cc(C2C(C(=O)c3ccc(C)o3)=C(O)C(=O)N2c2cc(C)on2)ccc1OCc1ccccc1 (stereo not drawn) | > 500 µM (inactive) | > 500 µM (inactive) | > 500 µM (inactive) |
| Cc1cc(N2C(=O)C(O)=C(C(=O)c3ccc(C)o3)C2c2ccc(OCc3ccccc3)cc2)no1 (stereo not drawn) | > 500 µM (inactive) | > 500 µM (inactive) | > 500 µM (inactive) |
| COc1ccc(C=NNC(=O)c2cc(O)c(O)c(O)c2)cc1COc1ccc(C(=O)OCC(C)C)cc1 | > 500 µM (inactive) | > 500 µM (inactive) | > 500 µM (inactive) |

More lines, now with the values ahead:

| IC50 (NS3h 1b (J4)) | IC50 (NS3h 2a (JFH1)) | IC50 (NS3h 1b (con1)) | Compound |
| --- | --- | --- | --- |
| > 500 µM (inactive) | > 500 µM (inactive) | > 500 µM (inactive) | COc1cccc(-n2c(SCc3cc(=O)oc4cc(O)c(O)cc34)nc3ccccc3c2=O)c1 |
| > 500 µM (inactive) | > 500 µM (inactive) | > 500 µM (inactive) | CCOc1cccc(C2C(C(=O)c3ccc(C)o3)=C(O)C(=O)N2Cc2ccccc2)c1 (stereo not drawn) |
| > 500 µM (inactive) |  | > 500 µM (inactive) | COc1ccc(/C=N/NC(=O)c2cc(O)c(O)c(O)c2)cc1COc1ccc(C(=O)OCC(C)C)cc1 |
| > 500 µM (inactive) | > 500 µM (inactive) | > 500 µM (inactive) | CCCCCOc1ccc(C2C(C(=O)c3ccc(C)o3)=C(O)C(=O)N2c2cc(C)on2)cc1 (stereo not drawn) |
